Reference: PMC9572521, “Synthesis, Docking Studies and Pharmacological Evaluation of Serotoninergic Ligands Containing a 5-Norbornene-2-Carboxamide Nucleus” (Molecules, 2022)
Read-outs that look alike come from different tables or passages of the source.

Assays:
[1] = target: 5-HT2A receptor (Rattus norvegicus, UniProt P14842); test: 5-HT2A competition binding assay ([3H]ketanserin, frontal cortex homogenates)
[2] = target: T1, D2 receptor (Rattus norvegicus, UniProt P61169); test: Functional D2 receptor [35S]GTPγS assay (antagonist mode vs dopamine; basal for agonism); assay type: biochemical; conditions: against 40 µM dopamine, rat striatal homogenate;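 further: [35S]GTPγS binding counted by scintillation after 60 min at 30 °C, nonspecific binding defined with 100 µM unlabeled GTPγS, inhibition curves fitted by one-site nonlinear regression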
T1 construct: 15μg/mL of striatal homogenate was incubated in triplicate; from tissue; host or cells: rat striatum homogenate

[3] = target: T2, human 5-HT2C receptor (Homo sapiens, UniProt P28335); test: 5-HT2C competition binding assay ([3H]mesulergine, transfected cell membranes)
T2 sequence (P28335 33-458): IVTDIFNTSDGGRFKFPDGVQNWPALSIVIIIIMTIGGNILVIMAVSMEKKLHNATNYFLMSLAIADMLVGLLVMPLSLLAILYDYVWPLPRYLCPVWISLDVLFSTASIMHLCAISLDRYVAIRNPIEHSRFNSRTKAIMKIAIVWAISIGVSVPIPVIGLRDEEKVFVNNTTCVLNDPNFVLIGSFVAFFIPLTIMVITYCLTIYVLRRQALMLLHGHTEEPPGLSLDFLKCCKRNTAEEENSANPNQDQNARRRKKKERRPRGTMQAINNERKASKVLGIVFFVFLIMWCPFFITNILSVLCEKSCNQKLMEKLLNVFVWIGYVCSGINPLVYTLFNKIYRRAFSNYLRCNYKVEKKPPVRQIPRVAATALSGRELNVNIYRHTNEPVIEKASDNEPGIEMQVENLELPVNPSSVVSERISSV

[4] = target: T3, 5-HT1A receptor (Rattus norvegicus, UniProt P19327); test: Functional 5-HT1A receptor [35S]GTPγS assay (agonist mode); assay type: biochemical; conditions: for Emax: read-out: 5-HT1A Receptor G-Protein Stimulation Emax (%) ± SEM;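 on all read-outs here: male Sprague-Dawley rat hippocampal membranes incubated 90 min at 37 °C, bound label counted by scintillation after filtration, non-specific binding defined with 100 µM unlabeled GTPγS, one-site curve fit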
T3 construct: 15 μg/mL of hippocampus homogenate was incubated in triplicate with 0.8 nM; from tissue; host or cells: rat hippocampus homogenate
T3 sequence (P19327 1-422): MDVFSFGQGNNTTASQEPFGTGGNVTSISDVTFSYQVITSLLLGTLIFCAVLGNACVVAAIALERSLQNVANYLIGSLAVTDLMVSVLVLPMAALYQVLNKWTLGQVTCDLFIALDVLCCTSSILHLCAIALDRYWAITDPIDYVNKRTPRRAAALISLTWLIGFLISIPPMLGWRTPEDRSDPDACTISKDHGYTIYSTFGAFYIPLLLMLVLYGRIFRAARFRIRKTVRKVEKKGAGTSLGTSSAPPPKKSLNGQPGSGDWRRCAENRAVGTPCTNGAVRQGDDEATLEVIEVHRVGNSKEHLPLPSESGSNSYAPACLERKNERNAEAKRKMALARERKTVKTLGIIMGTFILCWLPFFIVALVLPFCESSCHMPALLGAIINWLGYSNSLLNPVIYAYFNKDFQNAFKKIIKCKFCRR

[5] = read-out: D2 receptor antagonistic activity IC50 (95% CI)
[6] = read-out: D2 receptor antagonistic activity pIC50 (M ± SEM) (converted)
[7] = [3H]mesulergine, human 5-HT2C membranes, read-out: 5-HT2C Ki (95% CI)
[8] = [35S]GTPγS, rat hippocampus homogenate, read-out: 5-HT1A Receptor G-Protein Stimulation EC50 (95% CI)
[9] = [35S]GTPγS, rat hippocampus homogenate
[10] = [3H]mesulergine, human 5-HT2C membranes, ± SEM, read-out: 5-HT2C pKi (converted)
[11] = [35S]GTPγS, rat hippocampus homogenate, ± SEM
[12] = ± SEM, read-out: 5-HT2A pKi (converted)

5-HT2A receptor, sequence (P14842 whole entry): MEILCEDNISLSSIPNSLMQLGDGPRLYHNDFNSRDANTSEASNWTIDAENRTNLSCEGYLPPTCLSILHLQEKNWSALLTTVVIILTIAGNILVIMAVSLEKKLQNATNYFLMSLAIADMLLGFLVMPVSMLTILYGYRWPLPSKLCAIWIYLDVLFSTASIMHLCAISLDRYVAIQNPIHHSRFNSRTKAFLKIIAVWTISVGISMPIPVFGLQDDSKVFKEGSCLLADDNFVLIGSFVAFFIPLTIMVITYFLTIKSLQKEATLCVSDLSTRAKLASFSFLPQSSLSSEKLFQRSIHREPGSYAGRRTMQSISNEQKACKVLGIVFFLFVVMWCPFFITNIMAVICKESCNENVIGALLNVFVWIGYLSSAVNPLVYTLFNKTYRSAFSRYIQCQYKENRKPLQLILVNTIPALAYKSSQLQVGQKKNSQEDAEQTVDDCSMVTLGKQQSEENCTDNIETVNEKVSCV
T1 sequence (P61169 whole entry): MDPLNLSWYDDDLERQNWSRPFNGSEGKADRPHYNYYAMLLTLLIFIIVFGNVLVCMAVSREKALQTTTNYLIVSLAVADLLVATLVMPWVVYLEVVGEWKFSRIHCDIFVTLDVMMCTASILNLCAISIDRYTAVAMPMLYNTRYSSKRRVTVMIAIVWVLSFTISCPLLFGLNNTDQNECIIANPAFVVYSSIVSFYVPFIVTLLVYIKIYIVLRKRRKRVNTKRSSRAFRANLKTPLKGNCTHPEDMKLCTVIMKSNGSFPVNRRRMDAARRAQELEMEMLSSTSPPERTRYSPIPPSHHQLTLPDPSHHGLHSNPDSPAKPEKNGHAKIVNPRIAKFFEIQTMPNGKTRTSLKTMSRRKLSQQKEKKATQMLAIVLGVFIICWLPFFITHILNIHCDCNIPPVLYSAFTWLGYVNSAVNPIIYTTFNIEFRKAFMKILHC

Compound | Ki ([1]; read-out: 5-HT2A Ki (95% CI)) | IC50 [2, 5] | Ki [3, 7] | EC50 [4, 8] | Emax [4, 9] | 5-HT1A Receptor G-Protein Stimulation Emax (%) ± SEM [4, 9] | also measured
COc1ccccc1N1CCN(CCCNC(=O)C2CC3C=CC2C3)CC1 (single isomer, unassigned) [Norbo-6, endo-N-(3-(4-(2-methoxyphenyl)piperazin-1-yl)propyl)bicyclo[2.2.1]hept-5-ene-2-carboxamide] | 88.7 nM | 59500 nM | 1030 nM | 3220 nM | 131 ± 5.5% | – | IC50 [2, 6]: 60300 nM
CCCN(CCC)C1CCc2cccc(O)c2C1 (stereo not shown) [Norbo 8-OH-DPAT, reference compound] | – | – | – | – | – | – | Emax [4]: 154 ± 2.3%
O=C(NCCCN1CCN(c2ccccc2)CC1)C1CC2C=CC1C2 (stereo not drawn) [Norbo-1, Exo-N-(3-(4-phenylpiperazin-1-yl)propyl)bicyclo[2.2.1]hept-5-ene-2-carboxamide] | 74 nM | 101000 nM | 3890 nM | 1200 nM | 174 ± 4.15% | – | –
O=C(NCCCN1CCN(c2ccccc2)CC1)C1CC2C=CC1C2 (stereo not drawn) [Norbo-2, endo-N-(3-(4-phenylpiperazin-1-yl)propyl)bicyclo[2.2.1]hept-5-ene-2-carboxamide] | 99.1 nM | 106000 nM | 1610 nM | 1630 nM | – | 188 ± 4.9 % | EC50 ([4]; [35S]GTPγS, rat hippocampus homogenate, ± SEM, read-out: 5-HT1A Receptor G-Protein Stimulation pEC50 (converted)): 1660 nM
Cc1cccc(N2CCN(CCCNC(=O)C3CC4C=CC3C4)CC2)c1C (stereo not drawn) [Norbo-3, Exo-N-(3-(4-(2,3-dimethylphenyl)piperazin-1-yl)propyl)bicyclo[2.2.1]hept-5-ene-2-carboxamide] | 23.5 nM | 71000 nM | 250 nM | 177 nM | 185 ± 3.2% | – | –
COc1ccc(N2CCN(CCCNC(=O)C3CC4C=CC3C4)CC2)cc1 (stereo not drawn) [Norbo-7, Exo-N-(3-(4-(4-methoxyphenyl)piperazin-1-yl)propyl)bicyclo[2.2.1]hept-5-ene-2-carboxamide] | 105 nM | 51500 nM | 51.3 nM | 348 nM | 169 ± 3.5% | – | –
COc1ccc(N2CCN(CCCNC(=O)C3CC4C=CC3C4)CC2)cc1 (stereo not drawn) [Norbo-8, endo-N-(3-(4-(4-methoxyphenyl)piperazin-1-yl)propyl) bicyclo[2.2.1]hept-5-ene-2-carboxamide] | 127 nM | 60400 nM | 398 nM | 165 nM | – | 167 ± 2.3 % | –
O=C(NCCCN1CCN(c2ccccc2Cl)CC1)C1CC2C=CC1C2 (stereo not drawn) [Norbo-9, Exo-N-(3-(4-(2-chlorophenyl)piperazin-1-yl)propyl) bicyclo[2.2.1]hept-5-ene-2-carboxamide] | 109 nM | 20100 nM | 2790 nM | 207 nM | 149 ± 3.1% | – | IC50 [2, 6]: 20400 nM
O=C(NCCCN1CCN(c2ccccc2Cl)CC1)C1CC2C=CC1C2 (stereo not drawn) [Norbo-10, endo-N-(3-(4-(2-chlorophenyl)piperazin-1-yl)propyl)bicyclo[2.2.1]hept-5-ene-2-carboxamide] | 254 nM | 21500 nM | < 40 nM | 198 nM | – | 163 ± 2.4 % | Ki [3, 10]: 13.5 nM
O=C(NCCCN1CCN(c2ccc(Cl)cc2)CC1)C1CC2C=CC1C2 (stereo not drawn) [Norbo-11, Exo-N-(3-(4-(4-chlorophenyl)piperazin-1-yl)propyl)bicyclo[2.2.1]hept-5-ene-2-carboxamide] | 149 nM | 31200 nM | < 40 nM | – | – | no activity | IC50 [2, 6]: 31600 nM; Ki [3, 10]: 30.9 nM; 5-HT1A Receptor G-Protein Stimulation EC50 (95% CI, nM) [4, 9]: no activity; 5-HT1A Receptor G-Protein Stimulation pEC50 [4, 11]: no activity
O=C(NCCCN1CCN(c2ccc(Cl)cc2)CC1)C1CC2C=CC1C2 (stereo not drawn) [Norbo-12, endo-N-(3-(4-(4-chlorophenyl)piperazin-1-yl)propyl)bicyclo[2.2.1]hept-5-ene-2-carboxamide] | 227 nM | 100000 nM | 34900 nM | 1870 nM | 127 ± 5.1% | – | IC50 [2, 6]: 102000 nM
O=C(NCCCN1CCN(c2ccc(Cl)c(Cl)c2)CC1)C1CC2C=CC1C2 (stereo not drawn) [Norbo-13, Exo-N-(3-(4-(3,4-dichlorophenyl)piperazin-1-yl)propyl)bicyclo[2.2.1]hept-5-ene-2-carboxamide] | 28.8 nM | 68900 nM | 122 nM | – | – | no activity | 5-HT1A Receptor G-Protein Stimulation EC50 (95% CI, nM) [4, 9]: no activity; 5-HT1A Receptor G-Protein Stimulation pEC50 [4, 11]: no activity
O=C(NCCCN1CCN(c2ccccc2F)CC1)C1CC2C=CC1C2 (stereo not drawn) [Norbo-15, Exo-N-(3-(4-(2-fluorophenyl)piperazin-1-yl)propyl)bicyclo[2.2.1]hept-5-ene-2-carboxamide] | 82.6 nM | 62700 nM | 31 nM | 926 nM | – | 161 ± 4.5% | Ki [3, 10]: 31.6 nM
O=C(NCCCN1CCN(c2ccccn2)CC1)C1CC2C=CC1C2 (stereo not drawn) [Norbo-21, Exo-N-(3-(4-(pyridin-2-yl)piperazin-1-yl)propyl)bicyclo[2.2.1]hept-5-ene-2-carboxamide] | 258 nM | 181000 nM | 1340 nM | 588 nM | 181 ± 2.5% | – | –
O=C(NCCCN1CCN(c2ccccn2)CC1)C1CC2C=CC1C2 (stereo not drawn) [Norbo-22, endo-N-(3-(4-(pyridin-2-yl)piperazin-1-yl)propyl)bicyclo[2.2.1]hept-5-ene-2-carboxamide] | – | 125000 nM | 873 nM | 782 nM | – | 186 ± 4.4 % | Ki [1, 12]: 355 nM
O=C(NCCCN1CCN(c2ncccn2)CC1)C1CC2C=CC1C2 (stereo not drawn) [Norbo-23, Exo-N-(3-(4-(pyrimidin-2-yl)piperazin-1-yl)propyl)bicyclo[2.2.1]hept-5-ene-2-carboxamide] | 1080 nM | 255000 nM | 353 nM | 2400 nM | 181 ± 4.1% | – | –
O=C(NCCCN1CCN(c2ncccn2)CC1)C1CC2C=CC1C2 (stereo not drawn) [Norbo-24, endo-N-(3-(4-(pyrimidin-2-yl)piperazin-1-yl)propyl)bicyclo[2.2.1]hept-5-ene-2-carboxamide] | – | 206000 nM | 211 nM | 1720 nM | – | 177 ± 6.1 % | Ki [1, 12]: 1380 nM; Ki [3, 10]: 214 nM
COc1cc(OC)c(C(=O)CCCCN2CCC3(CC2)NC(=O)NC3=O)cc1NS(=O)(=O)c1ccc(C(F)(F)F)cc1 [RS102221, reference compound] | – | – | – | – | – | – | 5-HT2C pKi [3]: 8.25 ± 0.21; Ki ([3]; read-out: 5-HT2C Ki (95% CI)): 5.56 nM
